Blank lines part the entries; values can stand above or below the molecule they belong to.
Key:
NUAK1(h) enzyme = target: T1, NUAK1(h) enzyme (Homo sapiens, UniProt O60285); assay: In vitro NUAK1 enzymatic assay (Eurofins Discovery, [γ-33P]-ATP filter assay); format: biochemical; conditions: 45 μM ATP, 40 min, room temperature; read-out: IC50, inhibitory effect on NUAK1 enzyme activity
T1 construct: purchased Eurofins Discovery
T1 sequence (O60285 1-661): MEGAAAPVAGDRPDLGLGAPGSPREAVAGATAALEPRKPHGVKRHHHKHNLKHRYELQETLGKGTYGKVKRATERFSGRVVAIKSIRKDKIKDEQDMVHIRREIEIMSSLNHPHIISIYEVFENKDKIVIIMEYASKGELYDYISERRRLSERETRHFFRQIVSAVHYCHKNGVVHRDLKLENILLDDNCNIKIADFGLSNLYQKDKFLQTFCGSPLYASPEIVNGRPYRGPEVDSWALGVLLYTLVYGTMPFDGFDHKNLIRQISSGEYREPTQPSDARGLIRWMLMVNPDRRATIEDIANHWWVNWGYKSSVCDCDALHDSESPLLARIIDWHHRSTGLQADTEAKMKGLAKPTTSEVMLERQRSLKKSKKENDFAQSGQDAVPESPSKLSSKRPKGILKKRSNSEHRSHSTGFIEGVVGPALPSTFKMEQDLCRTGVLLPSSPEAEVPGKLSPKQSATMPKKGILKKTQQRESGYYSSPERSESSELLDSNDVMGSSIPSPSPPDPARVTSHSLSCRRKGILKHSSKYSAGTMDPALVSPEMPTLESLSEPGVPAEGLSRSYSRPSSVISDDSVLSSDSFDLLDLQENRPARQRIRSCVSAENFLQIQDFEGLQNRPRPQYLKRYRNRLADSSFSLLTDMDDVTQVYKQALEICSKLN
Method: In Vitro Assay to Determine the Inhibitory Effect of Compounds in the Patent on NUAK1 Enzymatic Activity
The in vitro NUAK1 enzymatic assay was carried out at Eurofins Discovery to evaluate the inhibitory effect of the compounds presented in the invention. The assay protocol is as follow: the compound to be tested was mixed with NUAK1(h) enzyme and 300 μM […] substrate in 8 mM MOPS (pH 7.0) buffer containing 0.2 mM EDTA and incubated at room temperature. A Mg/ATP mixture containing 10 mM magnesium acetate and 45 μM [y-33P]-ATP was added to start the reaction. After incubation for 40 min at room temperature, the reaction was terminated by adding 0.5% phosphoric acid. Then, 10 μL of the reaction mix was spotted onto a P30 filter paper followed with four times of wash with 0.425% phosphoric acid solution (4 min each time), and one time wash with methanol. The filter paper was air-dried and counted in a liquid scintillation counter. The values obtained were plotted against the drug concentration and the IC50 was calculated.
Table 1 summarizes the inhibitory effect (IC50) of compounds tested on the NUAK1 enzyme activity in the present invention. ++++ indicates IC50≤10 nM; […]; ++ indicates 100 nM<IC50≤1 μM; + indicates IC50>1 μM.

NUAK2(h) enzyme = target: T2, NUAK2(h) enzyme (Homo sapiens, UniProt Q9H093); assay: In vitro NUAK2 enzymatic assay (Eurofins Discovery, [γ-33P]-ATP filter assay); format: biochemical; conditions: 45 μM ATP, 40 min, room temperature; read-out: IC50, inhibitory effect on NUAK2 enzyme activity
T2 construct: purchased Eurofins Discovery
T2 sequence (Q9H093 1-628): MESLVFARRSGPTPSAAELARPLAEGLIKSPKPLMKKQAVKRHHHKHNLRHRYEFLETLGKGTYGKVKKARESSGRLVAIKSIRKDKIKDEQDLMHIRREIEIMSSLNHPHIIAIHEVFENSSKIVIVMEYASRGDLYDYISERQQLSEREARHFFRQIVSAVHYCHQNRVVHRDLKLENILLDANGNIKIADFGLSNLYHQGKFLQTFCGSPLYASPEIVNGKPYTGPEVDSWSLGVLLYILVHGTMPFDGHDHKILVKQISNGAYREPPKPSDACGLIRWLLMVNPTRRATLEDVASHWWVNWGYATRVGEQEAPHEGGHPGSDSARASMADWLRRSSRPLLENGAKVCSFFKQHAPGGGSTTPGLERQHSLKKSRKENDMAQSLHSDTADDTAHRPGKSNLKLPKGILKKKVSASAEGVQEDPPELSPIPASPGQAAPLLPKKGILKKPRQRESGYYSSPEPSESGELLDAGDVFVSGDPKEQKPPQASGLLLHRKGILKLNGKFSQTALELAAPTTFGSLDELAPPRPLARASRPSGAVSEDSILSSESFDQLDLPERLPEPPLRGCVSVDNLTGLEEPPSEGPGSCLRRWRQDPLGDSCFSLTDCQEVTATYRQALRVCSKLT
Method: In Vitro Assay to Determine the Inhibitory Effect of Compounds in the Patent on NUAK2 Enzymatic Activity
The in vitro NUAK2 enzymatic assay was carried out at Eurofins Discovery to evaluate the inhibitory effect of the compounds presented in the invention. The assay protocol is as follow: the compound to be tested was mixed with NUAK2(h) enzyme and 300 […] substrate in 8 mM MOPS (pH 7.0) buffer containing 0.2 mM EDTA. A Mg/ATP mixture containing 10 mM magnesium acetate and 45 μM [γ-33P]-ATP was added to start the reaction. After incubation for 40 min at room temperature, the reaction was terminated by adding 0.5% phosphoric acid. Then 10 μL of the reaction mix was spotted onto a P30 filter paper. The filter paper was washed four times with 0.425% phosphoric acid with 4 min for each wash, and one time with methanol. The filter paper was air-dried and counted in a liquid scintillation counter. The values obtained were plotted against the drug concentration and the IC50 was calculated.
Table 1 summarizes the inhibitory effect (IC50) of compounds on the NUAK2 enzyme activity in the present invention. ++++ indicates IC50≤10 nM; +++ indicates 10 nM<IC50≤100 nM; ++ indicates 100 nM<IC50≤1 μM; + indicates IC50>1 μM.

[1] = tested on: HEC-1-B human endometrial cancer cells; assay: CTG (CellTiter-Glo) proliferation assay on HEC-1-B cells, 7 days; format: cell-based; conditions: 168 h, 7 days incubation, read-out: IC50, inhibitory effect on proliferation of Hec-1B cells
Method: CTG Assay to Evaluate the Inhibitory Effect of Compounds on HEC-1-B Human Endometrial Cancer Cells
Human endometrial cancer HEC-1-B cells were resuscitated and cultured in complete medium (MEM medium+10% FBS). When reaching about 80% confluence, the cells were gently blown away from the bottom of the culture dish with a 1 mL pipette. The cells were collected and centrifuged at 500 rpm for 3 min. The supernatant was discarded and the cell pellet was resuspend in fresh medium. Cells were counted to determine cell density and seeded into 96-well plates at a density of 1000 cells per well and incubated overnight at 37° C. in a 5% CO2 incubator. In the next day, the compounds in storage solution was serially diluted with DMSO at a ratio of 1:3 for a total of 9 concentrations. Two μL of each serially diluted solution was added to 98 μL of cell culture medium ([…]), while DMSO was mixed with culture medium similarly to be served as control. The compound dilutions were shaken and mixed. The cell culture plate with cells was removed from CO2 incubator, the culture medium was aspirated from each well, 135 μL of fresh medium was added to each well followed with 15 μL of the compound dilutions. The plates were incubated at 37° C. for 7 days in a 5% CO2 incubator. One hundred μL CellTiter-Glo reagent was added to each well and the plate was vortexed for 2 min and incubated for 10 min to fully lyse the cells. The chemiluminescence values were read using a plate reader.
The chemiluminescence values were plotted against compound concentrations to calculate the inhibitory activity of each compound on cell proliferation Cell inhibition rate (%)=(chemiluminescence value tested compound−chemiluminescence value DMSO control)/(chemiluminescence value medium control−chemiluminescence valueDMSO control)×100%.
A nonlinear S-curve regression was fitted using XLFit software to fit the data to derive a dose-effect curve, from which the IC50 values were calculated. The curve equation was Y=Bottom+(Top-Bottom)/(1+10{acute over ( )}((LogIC50-X)×slope)), where Y is the cellular inhibition rate, X is the compound concentration, Bottom refers to the lowest inhibition rate, and Top refers to the highest inhibition rate.
Table 3 summarizes the inhibitory effects (IC50) of the compounds on the proliferation of Hec-1B cells, Where ++++ indicates 100 nM<IC50≤500 nM; +++ indicates 500 nM<IC50≤1 μM; ++ indicates 1 μM<IC50≤10 μM; + indicates IC50>10 μM.

SMILES: COc1cc(N2CCN(C)CC2)ccc1Nc1ncc2c(n1)N(C1CCCC1)C(=O)NC2 [Example 2, 1-cyclopentyl-7-((2-methoxy-4-(4-methylpiperazin-1-yl)phenyl)amino)-3,4-dihydropyrimido[4,5-d]pyrimidin-2(1H)-one]
- IC50 (NUAK1(h) enzyme): 0.01 to 0.1 µM
- IC50 (NUAK2(h) enzyme): 0.01 to 0.1 µM
- IC50 [1]: 1 to 10 µM

SMILES: COc1cc(N2CCN(C)CC2)ccc1Nc1ncc2cc(C)c(=O)n(C3CC3)c2n1 [Example 21]
- IC50 (NUAK1(h) enzyme): 0.01 to 0.1 µM
- IC50 (NUAK2(h) enzyme): 0.1 to 1 µM
- IC50 [1]: 0.1 to 0.5 µM

SMILES: COc1cc(N2CCN(C)CC2)ccc1Nc1ncc2ccc(=O)n(C3CCCCC3)c2n1 [Example 22, 8-cyclohexyl-2-((2-methoxy-4-(4-methylpiperazin-1-yl)phenyl)amino)pyrido[2,3-d]pyrimidin-7(8H)-one]
- IC50 (NUAK1(h) enzyme): ≤ 0.01 µM
- IC50 (NUAK2(h) enzyme): ≤ 0.01 µM
- IC50 [1]: > 10 µM

SMILES: COc1cc(N2CCN(C)CC2)ccc1Nc1ncc2ccc(=O)n(C3CC3)c2n1 [Example 23, 8-cyclopropyl-2-((2-methoxy-4-(4-methylpiperazin-1-yl)phenyl)amino)pyrido[2,3-d]pyrimidin-7(8H)-one]
- IC50 (NUAK1(h) enzyme): 0.01 to 0.1 µM
- IC50 (NUAK2(h) enzyme): 0.1 to 1 µM
- IC50 [1]: 0.1 to 0.5 µM

SMILES: COc1cc(N2CCN(C)CC2)ccc1Nc1nnc2ccc(=O)n(C3CCCC3)c2n1 [Example 24, 5-cyclopentyl-3-((2-methoxy-4-(4-methylpiperazin-1-yl)phenyl)amino)pyrido[2,3-e][1,2,4]triazin-6(5H)-one]
- IC50 (NUAK1(h) enzyme): 0.1 to 1 µM
- IC50 (NUAK2(h) enzyme): 0.01 to 0.1 µM
- IC50 [1]: 0.5 to 1 µM

SMILES: COc1cc(N2CCN(C)CC2)ccc1Nc1ncc2cc(C#N)c(=O)n(C3CCCC3)c2n1 [Example 26, 8-cyclopentyl-2-((2-methoxy-4-(4-methylpiperazin-1-yl)phenyl)amino)-7-oxo-7,8-dihydropyrido[2,3-d]pyrimidine-6-carbonitrile]
- IC50 (NUAK1(h) enzyme): 0.01 to 0.1 µM
- IC50 (NUAK2(h) enzyme): 0.01 to 0.1 µM
- IC50 [1]: 0.5 to 1 µM

SMILES: COc1cc(N2CCN(C)CC2)ccc1Nc1ncc2c(C)cc(=O)n(C3CCCC3)c2n1 [Example 27, 8-cyclopentyl-2-((2-methoxy-4-(4-methylpiperazin-1-yl)phenyl)amino)-5-methylpyrido[2,3-d]pyrimidin-7(8H)-one]
- IC50 (NUAK1(h) enzyme): 0.1 to 1 µM
- IC50 (NUAK2(h) enzyme): 0.1 to 1 µM
- IC50 [1]: 1 to 10 µM

SMILES: COc1cc(N2CCN(C)CC2)ccc1Nc1ncc2c(n1)N(C1CCCC1)C(=O)CC2 [Example 28, 8-cyclopentyl-2-((2-methoxy-4-(4-methylpiperazin-1-yl)phenyl)amino)-5,8-dihydropyrido[2,3-d]pyrimidin-7(6H)-one]
- IC50 (NUAK1(h) enzyme): 0.1 to 1 µM
- IC50 (NUAK2(h) enzyme): 0.01 to 0.1 µM
- IC50 [1]: 1 to 10 µM

SMILES: COc1cc(N2CCN(C)CC2)ccc1Nc1ncc2c(n1)N(C1CCCCC1)C(=O)CC2 [Example 29, 8-cyclohexyl-2-((2-methoxy-4-(4-methylpiperazin-1-yl)phenyl)amino)-5,8-dihydropyrido[2,3-d]pyrimidin-7(6H)-one]
- IC50 (NUAK1(h) enzyme): 0.01 to 0.1 µM
- IC50 (NUAK2(h) enzyme): 0.01 to 0.1 µM
- IC50 [1]: 0.5 to 1 µM

Next, values leading:

- IC50 (NUAK1(h) enzyme): 0.1 to 1 µM
- IC50 (NUAK2(h) enzyme): ≤ 0.01 µM
- IC50 [1]: 0.5 to 1 µM
SMILES: COc1cc(N2CCN(C)CC2)ccc1Nc1ncc2cnc(=O)n(C3CCCC3)c2n1 [Example 5, 1-cyclopentyl-7-((2-methoxy-4-(4-methylpiperazin-1-yl)phenyl)amino)pyrimido[4,5-d]pyrimidin-2(1H)-one]

- IC50 (NUAK1(h) enzyme): 0.1 to 1 µM
- IC50 (NUAK2(h) enzyme): 0.01 to 0.1 µM
- IC50 [1]: 0.5 to 1 µM
SMILES: COc1cc(N2CCN(C)CC2)ccc1Nc1ncc2cnc(=O)n(C3CCCCC3)c2n1 [Example 6, 1-cyclohexyl-7-((2-methoxy-4-(4-methylpiperazin-1-yl)phenyl)amino)pyrimido[4,5-d]pyrimidin-2(1H)-one]

- IC50 (NUAK1(h) enzyme): 0.1 to 1 µM
- IC50 (NUAK2(h) enzyme): 0.01 to 0.1 µM
- IC50 [1]: 0.5 to 1 µM
SMILES: Cc1cc(N2CCN(C)CC2)ccc1Nc1ncc2cnc(=O)n(C3CCCC3)c2n1 [Example 10, 1-cyclopentyl-7-((2-methyl-4-(4-methylpiperazin-1-yl)phenyl)amino)pyrimido[4,5-d]pyrimidin-2(1H)-one]

- IC50 (NUAK1(h) enzyme): 0.01 to 0.1 µM
- IC50 (NUAK2(h) enzyme): ≤ 0.01 µM
- IC50 [1]: 0.5 to 1 µM
SMILES: COc1cc(N2CCN(C)CC2)ccc1Nc1ncc2ccc(=O)n(C3CCCC3)c2n1 [Example 19, 8-cyclopentyl-2-((2-methoxy-4-(4-methylpiperazin-1-yl)phenyl)amino)pyrido[2,3-d]pyrimidin-7(8H)-one]

- IC50 (NUAK1(h) enzyme): 0.01 to 0.1 µM
- IC50 (NUAK2(h) enzyme): 0.01 to 0.1 µM
- IC50 [1]: > 10 µM
SMILES: COc1cc(N2CCN(C)CC2)ccc1Nc1ncc2cc(C)c(=O)n(C3CCCC3)c2n1 [Example 20, 8-cyclopentyl-2-((2-methoxy-4-(4-methylpiperazin-1-yl)phenyl)amino)-6-methylpyrido[2,3-d]pyrimidin-7(8H)-one]

— patent publication US20240124464A1, “SUBSTITUTED FUSED BICYCLIC COMPOUND AS KINASE INHIBITOR AND USE THEREOF” (IMPACT THERAPEUTICS (SHANGHAI), INC, priority 2020, published 2024)
